Earlier results in US9526741B2, “Chemosensory receptor ligand-based therapies” (NaZura BioHealth, Inc., priority 2009, dated 2016).

Test system: GLP-1
Conditions: humans

SMILES: OCCN1C[C@H](O)[C@@H](O)[C@H](O)[C@H]1CO [miglitol]
- postprandial GLP-1 levels: increase
